Target: recombinant EsigPBP3
Assay: fluorescence competitive binding assay (FCBA) with 1-NPN probe
Design: species or system Endoclita signifer
Conditions: for IC50: displacement of 1-NPN, 20 mM Tris-HCl pH 7.4, ligands 2-24 µM; for IC50 / Ki: 2 µM EsigPBP3 and 2 µM 1-NPN; for Ki: from IC50 by Ki = [IC50]/(1 + [1-NPN]/K1-NPN)
Description: Fluorescence competition assays were conducted using 1-NPN ([…]) as a selective fluorescence probe to measure the affinity of ligands for binding to the recombinant EsigPBP3 [49]. […] The emission wavelength range was set from 380 nm to 520 nm. After the fluorescence intensity stabilized, scans were performed and the emission was recorded (both excitation and emission slit widths were set to 10 nm). A final concentration of 2 μM EsigPBP3 solution was prepared in 20 mM Tris-HCl buffer (pH 7.4), and the ligands were dissolved in chromatographically pure methanol as 1 mM stock solutions. […] The compound was added proportionally to a mixture with a final concentration of 2 µM EsigPBP3 protein and 2 µM 1-NPN. The ability of ligands to bind to the EsigPBP3 protein was monitored by the decrease in fluorescence intensity.

| Compound | IC50 [µM] | Ki (pH 7.4) [µM] | Kd (binding curve and Scatchard plot, 2 µM EsigPBP3, 1-NPN 2-24 µM, pH 7.4, read-out: dissociation constant (Kd) of EsigPBP3 for the reporter ligand 1-NPN) [µM] |
| --- | --- | --- | --- |
| Cc1cc(C)cc(C)c1 [1,3,5-trimethyl-benzen] | > 24 | > 16.1 |  |
| c1ccc(Nc2cccc3ccccc23)cc1 [1-NPN, reference compound] |  |  | 3.36 |
| CC(C)(O)c1ccccc1 [2-phenyl-2-propanol] | > 24 | > 16.1 |  |
| CCc1ccc(C(C)=O)cc1 [4-ethylacetophenone] | 8.26 | 5.55 |  |
| CC1=CCC2CC1C2(C)C (stereo not drawn) [(−)-α-pinene] | 7.85 | 5.27 |  |
| CC12CCC(CC1)C(C)(C)O2 [eucalyptol] | > 24 | > 16.1 |  |

Continued, in another order:

| IC50 [µM] | Ki (pH 7.4) [µM] | Compound | Kd (binding curve and Scatchard plot, 2 µM EsigPBP3, 1-NPN 2-24 µM, pH 7.4, read-out: dissociation constant (Kd) of EsigPBP3 for the reporter ligand 1-NPN) [µM] |
| --- | --- | --- | --- |
| 4.77 | 3.2 | C=C1CCC2CC1C2(C)C (stereo not drawn) [(−)-β-pinene] |  |
| 7.19 | 4.83 | CCc1ccccc1CC [benzene, 1,2-diethyl-] |  |
| 9.85 | 6.61 | C=C1C2CCC(C2)C1(C)C (stereo not shown) [camphene] |  |
| 5.32 | 3.57 | CC1=CC[C@H](C(C)C)C=C1 [α-phellandrene] |  |
